# Patent US20260174671A1, “COMPOSITION FOR ALLEVIATING OR PREVENTING SYMPTOMS OF ALLERGIC RHINITIS OR ALLERGIC CONJUNCTIVITIS” (Nissui Corporation, priority 2022, published 2026)
# Tests used:
# [1] = tested on: adult males and females who had experienced nasal and/or eye discomfort due to pollen; assay: Severity classification of allergic rhinitis symptoms, placebo-controlled intake test during the pollen season; format: in vivo, human
# From the text: The severity classification of allergic rhinitis symptoms refers to a method of classifying the severity based on Practical Guideline for the Management of Allergic Rhinitis in Japan 2020 (Committee of the Practical Guideline for the Management of Allergic Rhinitis). Specifically, each evening, the subject himself/herself selects the one that best describes the severity of the day on the subjective symptoms on each item listed in the table below.
# The subjects were adult males and females who had experienced nasal and/or eye discomfort due to pollen for the past 2 years.
# The remaining 36 subjects were randomized and divided into a DGLA administration group (intervention group; hereinafter referred to as DGLA group) with 18 subjects and a placebo administration group (control group; hereinafter referred to as placebo group) with 18 subjects. 3 subjects in the placebo group became untraceable during the testing. Therefore, the analysis was performed on 18 subjects in the DGLA group and 15 subjects in the placebo group.
# The DGLA group: DGLA-containing oil (DGLA of 31.4% by weight) was taken at 1,000 mg/day for 15 weeks. The DGLA of 314 mg/day is to be taken in terms of free fatty acid. The DGLA-containing oil was obtained by the method described in Japanese Patent No. 3354581. Specifically, to 200 g of dry cells of a filamentous fungus (Mortierella alpina), 500 mL of hexane was added, the mixture was stirred, and the filtration was repeated three times to extract oil, and then the hexane layer was evaporated to obtain DGLA-containing oil. The subjects took 4 capsules filled with this oil per day.
# The intake duration of the diet for testing was 15 weeks from January 8th to Apr. 23, 2022. […]
# (§1) The mean±SD of the change in score from the start of the testing was calculated for each group at each time point, and statistical analysis was conducted. […]
# [2] = tested on: adult males and females who had experienced nasal and/or eye discomfort due to pollen; assay: Japanese Allergic Rhinitis Standard Quality of Life Questionnaire (JRQLQ), placebo-controlled intake test during the pollen season; format: in vivo, human
# From the text: The JRQLQ is a questionnaire created by Okuda et al. to assess the impact of allergic rhinitis on quality of life (QOL) (Minoru Okuda et al.: Japanese Rhino-conjunctivitis Quality-of-Life Questionnaire (2002 edition), Committee of the Japanese Rhino-conjunctivitis Quality-of-Life Questionnaire, Allergy 2003; 52:21-56). […] In the JRQLQ, the subject himself/herself selects the one that best describes the severity of the worst nasal and eye symptoms the subject has experienced in the past 1-2 weeks on the items listed in the table below.
# Also, as shown in Examples to be described later, the composition of the present invention can reduce the scores of nasal and eye symptoms in the JRQLQ, in particular, or suppress the increase of the score, compared to the placebo group. In the present invention, the phrase the “score of nasal and eye symptoms in the JRQLQ” means the sum of the scores of runny nose, sneezing, blocked nose, itchy nose, itchy eyes, and watery eyes in the JRQLQ. In a preferred embodiment of the present invention, the composition of the present invention can be used for reducing the scores of nasal and eye symptoms in the JRQLQ, or suppressing the increase of the score, compared to the placebo group. […]
# as §1
# dermatitis model animals = conditions: intake of DGLA; PTL 2; cited from earlier work
# [3] = tested on: atopic dermatitis model mice; conditions: PTL 4, cited from earlier work
# [4] = tested on: splenocytes from the model mice; conditions: PTL 4; cited from earlier work
compound,measurement,setting,value
"CCCCCC=CCC=CCC=CCCCCCCC(=O)O [DGLA, 8,11,14-eicosatrienoic acid]","sneezing attack score in the severity classification of allergic rhinitis symptoms, change from the start of testing (week 0)","[1]; DGLA group (n=18) vs placebo group (n=15), DGLA-containing oil 1,000 mg/day (DGLA 314 mg/day) oral, 15 weeks, p<0.01, FIG. 1",significantly reduced
same,"nasal congestion score in the severity classification of allergic rhinitis symptoms, change from the start of testing (week 0)","[1]; DGLA group (n=18) vs placebo group (n=15), DGLA-containing oil 1,000 mg/day (DGLA 314 mg/day) oral, 15 weeks, p<0.05, FIG. 2",significantly reduced
same,"stratification analysis of the DGLA group, severity classification items (sneezing attack, nasal discharge, nasal congestion, itchy eyes, tearing)","[1]; Group H (score 1 or higher at week 0) vs Group L (score 0), no significant difference, P=0.249-0.712, FIGS. 4 to 8",all the mean values for the items of Group H were lower than those of Group L
same,"JRQLQ nasal and eye symptom score (sum of runny nose, sneezing, blocked nose, itchy nose, itchy eyes, watery eyes), change from week 0","[2]; DGLA group (n=18) vs placebo group (n=15), DGLA-containing oil 1,000 mg/day (DGLA 314 mg/day) oral, 15 weeks, p<0.1, FIG. 3",tended to be reduced
same,"stratification analysis of the DGLA group, JRQLQ items (runny nose, sneezing, blocked nose, itchy nose, itchy eyes, watery eyes)","[2]; Group H (score 1 or higher at week 0) vs Group L (score 0), no significant difference, P=0.084-0.59, FIGS. 9 to 14",all the mean values for the items of Group H were lower than those of Group L
same,dermatitis,dermatitis model animals,suppresses dermatitis
"CCCCC/C=C\C/C=C\C/C=C\CCCCC(=O)O [GLA, γ-linolenic acid]",IgE production,"[3]; orally administered for two months, atopic dermatitis-affected mice with hyper IgE-emia",suppression of IgE production was not observed
same,IgE production in vitro,[4],suppressed IgE production
CCCCC/C=C\C/C=C\C/C=C\CCCCC(=O)OCC [γ-linolenic acid (GLA) ethyl ester],hyper IgE production,"[3]; oral administration, atopic dermatitis model mice",suppressed hyper IgE production
